Patent publication US12642794B2, “Dose regimens for use of LY3154207 in the treatment of dopaminergic CNS disorders” (Eli Lilly and Company, priority 2018, dated 2026)

Columns and labels:
healthy subjects [1] = assay: HBEA Part A single ascending dose study: adverse events, safety, tolerability; format: in vivo, human
Description: FIG. 1: Design of the study HBEA, a single ascending dose study of a D1 receptor positive allosteric modulator LY3154207 in healthy volunteers. aSafety review completed after each dose level prior to escalation. bDose escalation was terminated at 200 mg owing to cardiovascular effects. CSF=cerebrospinal fluid: LY=LY3154207: PBO=placebo: PK-pharmacokinetic.
HBEA is a single ascending dose study of a D1 receptor positive allosteric modulator LY3154207 in healthy volunteers. Study HBEA aims to determine the safety, tolerability, and peripheral and central pharmacokinetics (PK) of single ascending doses of LY3154207 in healthy subjects. Study HBEB aims to evaluate the effect of single-dose LY3154207 on sleep latency in sleep-deprived healthy male subjects as measured by a multiple sleep latency test (MSLT). HBEA was a Phase 1, 2-part, randomized, double-blind, placebo-controlled study in healthy males or females. Part A has a 3-period crossover design with 2 alternating, single-dose escalating cohorts, and subjects were randomized to LY3154207 (n=6) or placebo (n=3) in each cohort in each dosing period. Part B has a single-period, single-dose, 2-cohort design with cerebrospinal fluid (CSF) sampling, and subjects were randomized to LY3154207 (n=8) or placebo (n=4) in each cohort.
(§1) This is a phase 1, SAD, crossover design of LY3154207 in healthy subjects conducted in 2 alternating cohorts with dose escalation. Subjects are dosed at 25 mg, 75 mg, 100 mg, 150 mg and 200 mg or placebo. Safety parameters assessed include adverse events (AEs), safety laboratories, vital signs, ambulatory blood pressure monitoring (ABPM) and electrocardiogram (ECG). Subjects provide blood samples after dosing to measure plasma concentrations of LY3154207 for assessment of PK.

healthy subjects [2] = assay: HBEA ambulatory blood pressure monitoring (ABPM): blood pressure and pulse rate; format: in vivo, human
Description: as §1
Eighteen subjects enrolled with 17 subjects completing the study. […] One subject withdrew due to anxiety following a 150 mg dose. A total of 111 treatment emergent AEs occurred and were mostly mild (101/111). Insomnia, decreased appetite, anxiety, dizziness, headache, nausea, upper abdominal pain, and dysgeusia were the most common AEs and the majority (69/111) occurred at doses ≥100 mg. A dose-related signal for increases in pulse and blood pressure occurred and resolved in 24 hours. […] The administered LY3154207 dose excreted in urine was 0.02%. […] Data indicating a dose-related signal for increases in pulse and blood pressure also indicate the dosing regimens of the present invention may provide an improved combination of efficacy, safety, and clinical tolerability for use of LY3154207 which can avoid and/or minimize these undesirable effects. […] In HBEA Part A, treatment-related adverse events (AEs) occurred primarily at doses ≥100 mg and were mostly mild. In HBEA Part B, treatment-related AEs occurred only at 75 mg (25% of subjects) and were all mild: energy increased, anxiety, decreased appetite, and dizziness. […] Based on ABPM, the 4- to 8-hour estimates of the difference in least squares means for LY3154207 200 mg vs. placebo were 32 beats per minute (bpm) for pulse rate, and 14 mm Hg and 10 mm Hg for systolic and diastolic blood pressure, respectively.

[3] = 200 mg, ABPM 4- to 8-hour estimate

## C[C@H]1c2cccc(CCC(C)(C)O)c2C[C@H](CO)N1C(=O)Cc1c(Cl)cccc1Cl [LY3154207]
Healthy subjects [1]; HBEA
  serious or severe AEs: No serious or severe AEs occurred
Healthy subjects [1]; HBEA Part A, doses ≥100 mg
  treatment emergent AEs that occurred at doses ≥100 mg, of the total of 111: 69/111
Healthy subjects [1]; HBEA Part A, occurred primarily at doses ≥100 mg
  severity of treatment-related AEs: mostly mild
Healthy subjects [1]; HBEA, increase in AEs associated with central activation at doses ≥75 mg
  tolerability: well tolerated
Healthy subjects [1]; above the 75 mg dose
  frequency of activating adverse events such as insomnia: substantial increase in frequency
Healthy subjects [1]; dose range of 25-200 mg
  safety profile: acceptable safety profile
Healthy subjects [1]; doses ≤75 mg
  safety and tolerability: acceptable safety and tolerability
Healthy subjects [1]; single dose 25 mg (N = 6)
  Anxiety, treatment-related AE, n subjects: 0 n
  Decreased appetite, treatment-related AE, n subjects: 0 n
  Dizziness, treatment-related AE, n subjects: 0 n
  Dysgeusia, treatment-related AE, n subjects: 0 n
  Energy increased, treatment-related AE, n subjects: 0 n
  Feeling hot, treatment-related AE, n subjects: 0 n
  Headache, treatment-related AE, n subjects: 0 n
  Insomnia, treatment-related AE, n subjects: 0 n
  Nausea, treatment-related AE, n subjects: 0 n
  Treatment-related AEs, (%): 16.7%
  Treatment-related AEs, [events]: [1] events
Healthy subjects [1]; single dose 75 mg (N = 6)
  Anxiety, treatment-related AE, n subjects: 0 n
  Decreased appetite, treatment-related AE, [events]: 1 [1] events
  Decreased appetite, treatment-related AE, n subjects: 1 [1] n
  Dizziness, treatment-related AE, [events]: 2 [2] events
  Dizziness, treatment-related AE, n subjects: 2 [2] n
  Dysgeusia, treatment-related AE, n subjects: 0 n
  Energy increased, treatment-related AE, n subjects: 0 n
  Feeling hot, treatment-related AE, n subjects: 0 n
  Headache, treatment-related AE, [events]: 1 [1] events
  Headache, treatment-related AE, n subjects: 1 [1] n
  Insomnia, treatment-related AE, [events]: 1 [1] events
  Insomnia, treatment-related AE, n subjects: 1 [1] n
  Nausea, treatment-related AE, n subjects: 0 n
  Treatment-related AEs, (%): 66.7%
  Treatment-related AEs, [events]: [8] events
Healthy subjects [1]; single dose 100 mg (N = 8)
  Anxiety, treatment-related AE, [events]: 2 [2] events
  Anxiety, treatment-related AE, n subjects: 2 [2] n
  Decreased appetite, treatment-related AE, [events]: 1 [1] events
  Decreased appetite, treatment-related AE, n subjects: 1 [1] n
  Dizziness, treatment-related AE, [events]: 1 [1] events
  Dizziness, treatment-related AE, n subjects: 1 [1] n
  Dysgeusia, treatment-related AE, [events]: 2 [2] events
  Dysgeusia, treatment-related AE, n subjects: 2 [2] n
  Energy increased, treatment-related AE, [events]: 1 [1] events
  Energy increased, treatment-related AE, n subjects: 1 [1] n
  Feeling hot, treatment-related AE, [events]: 1 [1] events
  Feeling hot, treatment-related AE, n subjects: 1 [1] n
  Headache, treatment-related AE, n subjects: 0 n
  Insomnia, treatment-related AE, [events]: 4 [4] events
  Insomnia, treatment-related AE, n subjects: 4 [4] n
  Nausea, treatment-related AE, n subjects: 0 n
  Treatment-related AEs, (%): 75.0%
  Treatment-related AEs, [events]: [17] events
Healthy subjects [1]; single dose 150 mg (N = 9)
  Anxiety, treatment-related AE, [events]: 4 events
  Anxiety, treatment-related AE, n subjects: 3 n
  Decreased appetite, treatment-related AE, [events]: 3 [3] events
  Decreased appetite, treatment-related AE, n subjects: 3 [3] n
  Dizziness, treatment-related AE, [events]: 2 [2] events
  Dizziness, treatment-related AE, n subjects: 2 [2] n
  Dysgeusia, treatment-related AE, [events]: 2 [2] events
  Dysgeusia, treatment-related AE, n subjects: 2 [2] n
  Energy increased, treatment-related AE, [events]: 1 [1] events
  Energy increased, treatment-related AE, n subjects: 1 [1] n
  Feeling hot, treatment-related AE, [events]: 1 [1] events
  Feeling hot, treatment-related AE, n subjects: 1 [1] n
  Headache, treatment-related AE, [events]: 2 [2] events
  Headache, treatment-related AE, n subjects: 2 [2] n
  Insomnia, treatment-related AE, [events]: 3 [3] events
  Insomnia, treatment-related AE, n subjects: 3 [3] n
  Nausea, treatment-related AE, [events]: 2 [2] events
  Nausea, treatment-related AE, n subjects: 2 [2] n
  Treatment-related AEs, (%): 88.9%
  Treatment-related AEs, [events]: [34] events
Healthy subjects [1]; single dose 200 mg (N = 6)
  Anxiety, treatment-related AE, [events]: 1 [1] events
  Anxiety, treatment-related AE, n subjects: 1 [1] n
  Decreased appetite, treatment-related AE, [events]: 2 [2] events
  Decreased appetite, treatment-related AE, n subjects: 2 [2] n
  Dizziness, treatment-related AE, [events]: 1 [1] events
  Dizziness, treatment-related AE, n subjects: 1 [1] n
  Dysgeusia, treatment-related AE, n subjects: 0 n
  Energy increased, treatment-related AE, [events]: 1 [1] events
  Energy increased, treatment-related AE, n subjects: 1 [1] n
  Feeling hot, treatment-related AE, [events]: 1 [1] events
  Feeling hot, treatment-related AE, n subjects: 1 [1] n
  Headache, treatment-related AE, n subjects: 0 n
  Insomnia, treatment-related AE, [events]: 3 [3] events
  Insomnia, treatment-related AE, n subjects: 3 [3] n
  Nausea, treatment-related AE, [events]: 2 [2] events
  Nausea, treatment-related AE, n subjects: 2 [2] n
  Treatment-related AEs, (%): 83.3%
  Treatment-related AEs, [events]: [18] events
Healthy subjects [2]; [3]
  diastolic blood pressure, difference in least squares means vs. placebo: 10 mm Hg
  pulse rate, difference in least squares means vs. placebo: 32 bpm
  systolic blood pressure, difference in least squares means vs. placebo: 14 mm Hg
Healthy subjects [2]; ABPM, mostly resolving
  time to resolution of increases in blood pressure and pulse rate: ≤ 24 h
Healthy subjects [2]; single doses 25-200 mg, diurnal rhythm preserved
  effect on blood pressure and pulse rate measured by ABPM: dose-related increase
